Source: ChEMBL document CHEMBL3734717, “New INH-pyrazole analogs: Design, synthesis and evaluation of antitubercular and antibacterial activity” (Bioorg Med Chem Lett, 2015)
In brackets after ≈: the same amount, converted by molar mass. Activity calls are given as the source filed them. No cut-off for these calls is given here.

What was measured:
[1] = test system: Mycobacterium tuberculosis; assay: Antitubercular activity against Mycobacterium tuberculosis H37Rv assessed as inhibition of cell growth after 5 days by microplate alamar blue assay; format: functional; settings: 120 h
Pseudomonas aeruginosa [2] = assay: Antibacterial activity against Pseudomonas aeruginosa assessed as zone of inhibition at 75 ug/ml incubated for 18-24 hrs at 37 degC by disc diffusion method; format: functional; settings: for zone of inhibition at 75 µg/mL: read-out: IZ
Staphylococcus aureus [3] = assay: Antibacterial activity against Staphylococcus aureus assessed as zone of inhibition at 50 ug/ml incubated for 18-24 hrs at 37 degC by disc diffusion method; format: functional; settings: read-out: IZ
Pseudomonas aeruginosa [4] = assay: Antibacterial activity against Pseudomonas aeruginosa assessed as zone of inhibition at 50 ug/ml incubated for 18-24 hrs at 37 degC by disc diffusion method; format: functional; settings: for zone of inhibition at 50 µg/mL: read-out: IZ
Escherichia coli [5] = assay: Antibacterial activity against Escherichia coli assessed as zone of inhibition at 50 ug/ml incubated for 18-24 hrs at 37 degC by disc diffusion method; format: functional; settings: for zone of inhibition at 50 µg/mL: read-out: IZ
Escherichia coli [6] = assay: Antibacterial activity against Escherichia coli assessed as zone of inhibition at 75 ug/ml incubated for 18-24 hrs at 37 degC by disc diffusion method; format: functional; settings: for zone of inhibition at 75 µg/mL: read-out: IZ
Staphylococcus aureus [7] = assay: Antibacterial activity against Staphylococcus aureus assessed as zone of inhibition at 75 ug/ml incubated for 18-24 hrs at 37 degC by disc diffusion method; format: functional; settings: read-out: IZ
Vero = assay: Cytotoxicity against African green monkey Vero cells assessed as growth inhibition after 3 days by MTT assay; format: cell-based; settings: Chlorocebus sabaeus, 72 h
[8] = Selectivity index, ratio of IC50 for African green monkey Vero cells to MIC for Mycobacterium tuberculosis H37Rv; format: toxicity, cell-based; settings: read-out: Selectivity Index
[9] = Cytotoxicity against African green monkey Vero cells assessed as growth inhibition at 62.5 ug/ml after 3 days by MTT assay; format: cell-based; settings: chlorocebus sabaeus, read-out: GI

Structure (SMILES)	MIC [1] [µM]	inhibition zone (IZ) (Pseudomonas aeruginosa [2])	zone of inhibition at 50 µg/mL (Staphylococcus aureus [3]) [mm]	inhibition zone (IZ) (Pseudomonas aeruginosa [4])	inhibition zone (IZ) (Escherichia coli [5])	inhibition zone (IZ) (Escherichia coli [6])	zone of inhibition at 75 µg/mL (Staphylococcus aureus [7]) [mm]	IC50 (Vero) [µg/mL]	selectivity ratio [8]	zone of inhibition at 75 µg/mL (Pseudomonas aeruginosa [2]) [mm]	zone of inhibition at 50 µg/mL (Pseudomonas aeruginosa [4]) [mm]	zone of inhibition at 50 µg/mL (Escherichia coli [5]) [mm]	zone of inhibition at 75 µg/mL (Escherichia coli [6]) [mm]	inhibition at 72 h, 62.5 ug/ml [9] [%]
COc1ccc(C(=O)N(/N=C/c2c[nH]nc2-c2cccc(Cl)c2)C(=O)c2ccncc2)cc1OC	102 (≈ 50 µg/mL)	inactive	8	inactive	inactive	inactive	10							
O=C(c1ccncc1)N(/N=C/c1c[nH]nc1-c1cccc(Cl)c1)C(=O)c1ccc(Cl)cc1	3.4 (≈ 1.58 µg/mL)		18				23	> 1000	> 625	21	19	21	25	10.5
O=C(c1ccncc1)N(/N=C/c1c[nH]nc1-c1ccc(Cl)cc1)C(=O)c1ccc(F)cc1	112 (≈ 50 µg/mL)		14				17			17	14	17	19	
O=C(c1ccncc1)N(/N=C/c1c[nH]nc1-c1cccc(Cl)c1)C(=O)c1ccccc1Cl	1.7 (≈ 0.789 µg/mL)		13				15	513 (≈ 1110 µM)	642	16	12	14	18	14.9
O=C(c1ccncc1)N(/N=C/c1c[nH]nc1-c1ccc(Cl)cc1)C(=O)c1ccc(CCl)cc1	13.1 (≈ 6.27 µg/mL)		13				16	> 1000	> 160	20	18	15	19	12
O=C(c1ccccc1)N(/N=C/c1c[nH]nc1-c1cccc(Cl)c1)C(=O)c1ccncc1	116 (≈ 50 µg/mL)	inactive	11	inactive	inactive	inactive	13							
O=C(c1ccncc1)N(/N=C/c1c[nH]nc1-c1ccc(Cl)cc1)C(=O)c1ccc([N+](=O)[O-])cc1	26.3 (≈ 12.5 µg/mL)		17				19			17	15	18	20	
CC[C@@H](CO)NCCN[C@@H](CC)CO [ETHAMBUTOL]	15.3 (≈ 3.13 µg/mL)													
Cc1ccc(C(=O)N(/N=C/c2c[nH]nc2-c2ccc(Cl)cc2)C(=O)c2ccncc2)cc1	113 (≈ 50 µg/mL)		17				20			15	11	12	14	
O=C(c1ccncc1)N(/N=C/c1c[nH]nc1-c1cccc(Cl)c1)C(=O)c1ccc(F)cc1	3.6 (≈ 1.61 µg/mL)		13				16	> 1000	> 625	17	13	12	14	17.8
NC(=O)c1cnccn1 [PYRAZINAMIDE]	406 (≈ 50 µg/mL)													
O=C(N/N=C/c1c[nH]nc1-c1cccc(Cl)c1)c1ccncc1	4.9 (≈ 1.6 µg/mL)		18				23	> 1000	> 625	19	15	20	24	26.3
COc1ccc(C(=O)N(/N=C/c2c[nH]nc2-c2ccc(Cl)cc2)C(=O)c2ccncc2)cc1	109 (≈ 50 µg/mL)		10				12			13	10	7	9	
O=C(O)c1cn(C2CC2)c2cc(N3CCNCC3)c(F)cc2c1=O [CIPROFLOXACIN]			21				26			21	18	27	32	
COc1ccc(C(=O)N(/N=C/c2c[nH]nc2-c2ccc(Cl)cc2)C(=O)c2ccncc2)cc1OC	102 (≈ 50 µg/mL)		8				10			11	9	6	9	
O=C(c1ccncc1)N(/N=C/c1c[nH]nc1-c1cccc(Cl)c1)C(=O)c1ccc([N+](=O)[O-])cc1	26.3 (≈ 12.5 µg/mL)		14				17			14	11	13	15	
O=C(c1ccccc1)N(/N=C/c1c[nH]nc1-c1ccc(Cl)cc1)C(=O)c1ccncc1	116 (≈ 50 µg/mL)		9		inactive	inactive	11			12	10			
O=C(c1ccncc1)N(/N=C/c1c[nH]nc1-c1ccc(Cl)cc1)C(=O)c1ccc(Cl)cc1	53.8 (≈ 25 µg/mL)		21				24			21	18	19	24	
NNC(=O)c1ccncc1 [ISONIAZID]	0.7 (≈ 0.096 µg/mL)													
O=C(c1ccncc1)N(/N=C/c1c[nH]nc1-c1ccc(Cl)cc1)C(=O)c1ccccc1Cl	53.8 (≈ 25 µg/mL)		14				18			19	15	16	19	
O=C(N/N=C/c1c[nH]nc1-c1ccc(Cl)cc1)c1ccncc1	38.4 (≈ 12.5 µg/mL)		16				19			18	14	14	16	
O=C(c1ccncc1)N(/N=C/c1c[nH]nc1-c1cccc(Cl)c1)C(=O)c1ccc(CCl)cc1	52.3 (≈ 25 µg/mL)		14				17			20	18	14	16	
COc1ccc(C(=O)N(/N=C/c2c[nH]nc2-c2cccc(Cl)c2)C(=O)c2ccncc2)cc1	109 (≈ 50 µg/mL)		7				10			14	11	9	11	
Cc1ccc(C(=O)N(/N=C/c2c[nH]nc2-c2cccc(Cl)c2)C(=O)c2ccncc2)cc1	113 (≈ 50 µg/mL)		10				12			10	8	8	11	
